“Also recorded” adds a separate entry of the source.
Key:
HCC1806 cells [1] = assay: Fluorescence redox ratio imaging; type: cell-based, human; conditions: 10 μM, 48 h
Description: HCC1806 cells were plated on 35-mm glass-bottom petri dishes for imaging (MatTek Corp). Fluorescence intensity and lifetime images were acquired using a custom-built multiphoton fluorescence lifetime system (Bruker), with a 40× oil-immersion objective (1.3 NA) and an inverted microscope (TiE, Nikon). A titanium:sapphire laser (Chameleon Ultra II, Coherent) was tuned to 750 nm for two-photon excitation of NAD(P)H and tuned to 890 nm for two-photon excitation of FAD. A 440/80 nm bandpass filter was used to collect NAD(P)H fluorescence emission, and a 550/100 nm was used to collect FAD emission. […] A GaAsP PMT (H7422P-40, Hamamatsu) detected emitted photons. […] Time-correlated single photon counting electronics (SPC-150, Becker and Hickl) were used to acquire fluorescence decay curves. […] Fluorescence lifetime validation was performed by imaging a fluorescent bead (Polysciences Inc) and confirming that the measured lifetime (2.1 ns) agreed with previously published values^22. […]
An automated cell segmentation routine was written using CellProfiler to identify individual cell cytoplasms and extract average fluorescence intensity and fluorescence lifetime values for each cell in the field of view. Intensity values for each pixel were calculated by integrating the decay curve for each pixel. […]

[2] = system: HCC1806 cell line xenograft; assay: [18F]-4F-glutamine PET imaging; type: in vivo, mouse; conditions: single dose 75 mg/kg, 4 h
Description: Animal handling methods for PET imaging studies were conducted as reported^5,42 Prior to imaging, animals were allowed to acclimate to facility environment for at least 1 h in a warmed chamber at 31.5° C. Animals were administered 10.4-11.8 MBq 4-[^18F]fluoroglutamine via intravenous injection and imaged using a Concorde Microsystems Focus 220 microPET scanner (Siemens Preclinical Solutions). During imaging, animals were maintained under 2% isoflurane anesthesia in oxygen at 2 L/min and kept warm for the duration of the PET scan. PET images in xenograft-bearing mice were acquired as 60-minute dynamic data sets. […] PET data were reconstructed using a three-dimensional (3D) ordered subset expectation maximization/maximum a posteriori (OSEM3D/MAP) algorithm. […] ASIPro software (Siemens Preclinical Solutions) was used to manually draw 3D regions of interest (ROIs) surrounding the entire tumor volume. 4-[^18F]fluoroglutamine uptake was quantified as the percentage of the injected dose per gram of tissue (% ID/g). Significance was calculated using a t-test in Graphpad Prism. Error is reported as standard deviation (SD).
For in vivo studies, cell-line xenograft tumors were propagated in 6-week old, female athymic nude mice from immortalized cell lines. […] Tumor volumes were measured manually using calipers every third day and quantified using the formula V=W·L·(H/2).

[3] = Tolerability in chronic exposure studies (body mass, liver pathology); type: in vivo, mouse; conditions: 75 mg/kg per day, 21 days, vs vehicle
HCC1806 xenografts = assay: HCC1806 xenograft 10-day exposure study; type: in vivo, mouse; conditions: 75 mg/kg per day, 10 days
Description: Tissues were sectioned (5 μm thickness) and stained for pS6 (Cell Signaling, #4858) and caspase 3 (Cell Signaling #9661). Tissue slides were imaged at 20× magnification.
For in vivo studies, cell-line xenograft tumors were propagated in 6-week old, female athymic nude mice from immortalized cell lines. For HCC-1806 (10×10^6 cells), HCT-116 (5×10^6), and HT29 (10×10^6) cells were injected. Palpable tumors were typically visible within 2-3 weeks. For imaging studies (HCC-1806), tumors were propagated to approximately 500 mm^3. For treatment studies (HCT-116, HT29) tumors were propagated to approximately 200 mm^3 prior to therapy and were randomly assigned into treated and untreated cohorts. For generating the PDX, primary tumor tissue was obtained form a patient at Vanderbilt University Medical Center under an IRB approved protocol. The tumor tissue was genotyped within the VANTAGE core facility. Xenograft was generated as previously described 41. Briefly, tumor tissues were sectioned into approximately 125 cubic millimeter pieces then implanted subcutaneously without further manipulation. […] Tumor volumes were measured manually using calipers every third day and quantified using the formula V=W·L·(H/2).

Colo-205 xenografts = assay: Colo-205 xenograft 10-day exposure study; type: in vivo, mouse; conditions: 75 mg/kg per day, 10 days
HCC1806 cells [4] = assay: LC3B immunofluorescence; type: cell-based, human; conditions: 25 μM, 48 hrs
Description: Following treatment, cells were fixed with 70% methanol for 5-10 min. LC3B was visualized with 1:100 primary antibody (anti LC3B, Cell signaling 2775) at 37° C. for 45 min followed by application of 1:600 secondary antibody (Rhodamine Red, Invitrogen R6394) at 37° C. for 30 min and DAPI for 4 min. Images were acquired with a fluorescence microscope at visualized at 40× magnification.

HCC1806 cells [5] = assay: Glutathione and reactive oxygen species in HCC1806 cells; type: cell-based, human
Description: Glutathione levels were measured using a commercially available kit (Cayman Chemical 703002) according to the manufacturers protocol. Concurrently ROS was measured in cells using CM-H2DCFDA (Life Technologies C6827) coupled with flow cytometry in accordance with the manufacturers protocol. The assay was replicated replicated at least three times, technically and biologically. Significance was calculated using a t-test in Graphpad Prism. Error is reported as standard deviation (SD).

[6] = system: pERK in HCC1806 and HT29 cells; assay: AlphaScreen SureFire pERK assay; type: cell-based, human; conditions: 48 h
Description: Detection of activated ERK in cell lysates was enabled by the AlphaScreen SureFire ERK assay (Perkin Elmer) according to the manufacturers protocol. Cells were plated in 96-well plates for 24 hours prior to the assay.

Cc1cccc(COc2ccccc2CN(CCC(N)C(=O)O)Cc2ccccc2OCc2cccc(C)c2)c1 (stereo not shown) [Compound V-9302]
fluorescent lifetimes of NAD(P)H and FAD (HCC1806 cells [1]): decreased the fluorescent lifetimes of both NAD(P)H and FAD
reduction of [18F]-4F-glutamine uptake in tumors [2]: approximately 50%
liver pathology ([3]; athymic nude mice, H&E): similar; also recorded: no discernible difference
weight loss ([3]; chronic exposure): no significant weight loss
tumor growth (HCC1806 xenografts): tumor growth arrest
tumor response markers (HCC1806 xenografts): elevated LC3B and cleaved caspase 3, along with decreased pAKT (Ser473) and pS6
tumor BRDU uptake (Colo-205 xenografts): decreased tumor BRDU uptake
tumor growth (Colo-205 xenografts): tumor growth arrest
tumor response markers (Colo-205 xenografts): elevated LC3B, cleaved caspase 3 and decreased pAKT (Ser473 and Thr308), as well as increased cleaved PARP and decreased and pERK
LC3B, marker of autophagy (HCC1806 cells [4]): elevated LC3B
intracellular reactive oxygen species (ROS) (HCC1806 cells [5]): corresponding increase in intracellular reactive oxygen species (ROS)
oxidized (GSSG) and reduced (GSH) glutathione (HCC1806 cells [5]): increased levels of oxidized glutathione (GSSG) at the expense of reduced glutathione (GSH)
pERK (independent biochemical assay) [6]: statistically significant, concentration-dependent decrease in pERK
